Laboratory results: patent US9283244B2, “Treatment of cancer by inhibiting activity or expression of late SV-40 factor” (Virginia Commonwealth University, priority 2010, dated 2016)

What was measured:
LSF-17 cells [1] = test: Matrigel invasion assay, LSF-17 cells; assay type: cell-based, human
Protocol: FIGS. 8A-D. Inhibition of OPN abrogates LSF-induced tumorigenesis and metastasis. The indicated clones were subcutaneously implanted in athymic nude mice. A. Tumor volume and tumor weight were measured 3 weeks after implantation. B. Graphical representation of metastatic lung nodules in the animals injected with the LSF-17consh-15 and LSF-17-OPNsh-18 clones via tail vein. The data represent mean±SEM. Inset: H&E sections of lungs of animals injected with the indicated clones. C. Parental HepG3 cells were treated with conditioned media from Control-8 or LSF-17 clone of HepG3 cells and then subjected to matrigel invasion. D. Matrigel invasion assay using LSF17 clone of HepG3 cells in the presence of neutralizing antibodies. Integrin: anti-αvβ3 integrin antibody. […]
FIGS. 12A-F. Inhibition of CD44 and c-Met by SU11274 blocks LSF function. […] F. HepG3 cells were untreated or treated with OPN (100 ng/ml) and with SU11274 (5 μM) for 24 h and the expression of the indicated proteins were detected by Western blot analysis. […]
(§1) Primary rat hepatocytes were isolated and cultured as described (19). […] Cell viability was determined by standard MTT assays as described (5). […]
We next investigated the importance of c-Met activation in mediating LSF function. LSF-17 cells and QGY-7703 cells were treated with the chemical inhibitor of c-Met, SU11274 (5 μM), and cell viability and Matrigel invasion was monitored. […]

c-Met = target: T1, c-Met (Homo sapiens, UniProt P08581); test: Western blot of c-Met activation (p-c-Met) in HepG3 cells; assay type: cell-based
T1 construct: endogenous in cells; host or cells: HepG3 cells; LSF-17 clone of HepG3 (stably overexpresses LSF, not c-Met)
T1 sequence (P08581 25-1390): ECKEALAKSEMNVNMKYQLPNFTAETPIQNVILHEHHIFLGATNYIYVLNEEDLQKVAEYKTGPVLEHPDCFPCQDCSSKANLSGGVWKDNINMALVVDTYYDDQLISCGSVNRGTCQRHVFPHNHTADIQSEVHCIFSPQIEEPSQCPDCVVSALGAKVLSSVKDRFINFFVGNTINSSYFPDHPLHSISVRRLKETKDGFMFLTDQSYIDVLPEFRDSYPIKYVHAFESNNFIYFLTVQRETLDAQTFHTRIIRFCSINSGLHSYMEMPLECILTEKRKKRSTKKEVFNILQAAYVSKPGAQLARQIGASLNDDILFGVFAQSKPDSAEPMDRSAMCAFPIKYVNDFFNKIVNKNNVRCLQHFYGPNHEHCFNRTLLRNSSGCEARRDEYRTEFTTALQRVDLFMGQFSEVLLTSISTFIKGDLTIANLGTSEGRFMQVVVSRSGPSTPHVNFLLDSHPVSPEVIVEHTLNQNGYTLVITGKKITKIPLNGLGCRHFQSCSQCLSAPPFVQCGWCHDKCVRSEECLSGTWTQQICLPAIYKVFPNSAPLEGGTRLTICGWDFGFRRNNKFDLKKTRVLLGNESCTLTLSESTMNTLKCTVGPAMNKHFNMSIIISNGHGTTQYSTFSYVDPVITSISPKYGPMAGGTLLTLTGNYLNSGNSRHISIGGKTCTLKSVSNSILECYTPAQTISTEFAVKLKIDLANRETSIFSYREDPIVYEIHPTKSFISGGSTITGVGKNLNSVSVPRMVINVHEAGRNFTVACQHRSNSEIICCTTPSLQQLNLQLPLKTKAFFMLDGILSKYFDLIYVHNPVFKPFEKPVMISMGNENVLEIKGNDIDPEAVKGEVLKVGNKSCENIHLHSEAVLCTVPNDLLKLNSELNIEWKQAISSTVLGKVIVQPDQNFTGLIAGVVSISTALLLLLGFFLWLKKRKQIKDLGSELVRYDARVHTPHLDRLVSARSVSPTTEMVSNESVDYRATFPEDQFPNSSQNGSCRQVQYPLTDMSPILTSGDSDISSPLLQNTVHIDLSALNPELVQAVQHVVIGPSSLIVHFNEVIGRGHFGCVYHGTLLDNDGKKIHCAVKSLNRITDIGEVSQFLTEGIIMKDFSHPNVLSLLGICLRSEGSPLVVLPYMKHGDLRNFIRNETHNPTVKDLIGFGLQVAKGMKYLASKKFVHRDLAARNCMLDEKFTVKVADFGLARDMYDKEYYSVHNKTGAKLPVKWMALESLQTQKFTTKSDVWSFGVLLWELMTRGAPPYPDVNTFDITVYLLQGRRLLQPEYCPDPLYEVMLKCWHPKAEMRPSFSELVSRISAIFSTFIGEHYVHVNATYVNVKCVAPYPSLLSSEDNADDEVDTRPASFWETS
Protocol: FIGS. 10A-D. OPN activates c-Met. A. HepG3 cells were treated with OPN (100 ng/ml) for the indicated time points and p-c-Met and total c-Met levels were analyzed by Western blot analysis. B. Expression of OPN and p-c-Met was determined by immunohistochemical analysis in FFPE sections of normal liver and matched HCC. A representative figure is shown from one patient. C. Statistical correlation between OPN and phospho-c-Met levels in 50 human HCC patients analyzed by Pearson's test. D. Left panel: LSF-17consh-15 (Consh-15) is a clone of LSF-17 cells that stably expresses control scrambled shRNA and LSF-17-OPNsh-6 (OPNsh-6) and LSF-17-OPNsh-18 (OPNsh-18) are clones of LSF-17 cells stably expressing OPN shRNA. The expression of the indicated proteins was detected by Western blot analysis. Right panel, LSF-17 clone of HepG3 cells were treated with normal IgG (mouse and rabbit; Santa Cruz), anti-αvβ3 integrin antibody (mouse; Millipore) or anti-CD44 antibody (rabbit; Santa Cruz) at a concentration of 20 μg/ml for 24 h and the expression of the indicated proteins was detected by Western blot analysis.
(§2) FIGS. 12A-F. Inhibition of CD44 and c-Met by SU11274 blocks LSF function. A. LSF-17 cells were treated with normal IgG or anti-CD44 antibody and then subjected to Matrigel invasion assay. (B, C) Cell viability (MTT) assay of LSF-17 (B) and QGY-7703 (C) cells treated with SU11274 (5 μM) for the indicated time period. (D, E) Matrigel invasion assays of LSF-17 (D) and QGY-7703 (E) cells treated with SU11274 (5 μM). For SU11274 removal, cells were treated with SU11274 for 24 h before seeding them in the invasion chamber in SU11274-free condition. For A-E, data represent mean±SEM. F. HepG3 cells were untreated or treated with OPN (100 ng/ml) and with SU11274 (5 μM) for 24 h and the expression of the indicated proteins were detected by Western blot analysis. Asterisk (*) represents statistically significant difference (p<0.05).
(§3) Preparation of whole cell lysates and Western blot analyses were performed as described (5). The primary antibodies used were anti-LSF (1:2,000; mouse monoclonal; BD Biosciences), anti-pERK (1:2,000; rabbit polyclonal; Cell Signaling), anti-ERK (1:2,000; rabbit polyclonal; Cell Signaling), anti-pAKT (1:1,000; rabbit polyclonal; Cell Signaling) and anti-AKT (1:1,000; rabbit polyclonal; Cell Signaling). Blots were stripped and normalized by re-probing with anti-β-tubulin (1:1,000; mouse monoclona; Sigma).
To confirm the link between OPN and c-Met, HepG3 cells were treated with OPN (100 ng/ml) for 24 h in the presence or absence of SU11274. […] Treatment with OPN increased p-Akt/Akt ratio to 1.42 which was decreased to 0.63 upon SU11274 treatment.

parental HepG3 cells = test: Cell viability, parental HepG3 cells; assay type: cell-based, human; details: SU11274 treatment; data not shown
Protocol: Primary rat hepatocytes were isolated and cultured as described (19). SNU-423 cells were obtained from ATCC and cultured as instructed. HepG3, QGY-7703, Hep3B, HuH7, Focus and HEK-293 cells were cultured as described (20). Cell viability was determined by standard MTT assays as described (5). Colony formation, anchorage-independent growth in soft agar and matrigel invasion assays were performed exactly as described (5). We next investigated the importance of c-Met activation in mediating LSF function. LSF-17 cells and QGY-7703 cells were treated with the chemical inhibitor of c-Met, SU11274 (5 μM), and cell viability and Matrigel invasion was monitored. […] For invasion assay cells were treated with SU11274 for 24 h, a time point when no significant effect on cell viability was observed.

LSF-17 cells [2] = test: Cell viability by standard MTT assay, LSF-17 cells; assay type: cell-based, human; details: SU11274 5 μM
Protocol: as §2, with “(p<0.05). Primary rat hepatocytes were isolated and cultured as described (19). SNU-423 cells were obtained from ATCC and cultured as instructed. HepG3, QGY-7703, Hep3B, HuH7, Focus and HEK-293 cells were cultured as described (20). Cell viability was determined by standard MTT assays as described (5). Colony formation, anchorage-independent growth in soft agar and matrigel invasion assays were performed exactly as described (5). […] LSF-17 cells and QGY-7703 cells were treated with the chemical inhibitor of c-Met, SU11274 (5 μM), and cell viability and Matrigel invasion was monitored. […]” for “(p<0.05).”

ERK = test: Western blot of ERK activation in HepG3 cells; assay type: cell-based, human; details: 24 h
Protocol: as §2
as §3, with “Sigma). […]” for “Sigma).”

Akt = test: Western blot of Akt activation in HepG3 cells; assay type: cell-based, human
Protocol: as §2, §3
Treatment with OPN increased p-Akt/Akt ratio to 1.42 which was decreased to 0.63 upon SU11274 treatment.

QGY-7703 cells [3] = test: Cell viability by standard MTT assay, QGY-7703 cells; assay type: cell-based, human; details: SU11274 5 μM
Protocol: as §2
(§4) FIGS. 13A-F. Genetic inhibition of c-Met by shRNA blocks LSF function. […] A. Expression of the indicated proteins was detected in the indicated cells by Western blot analysis. […] D. QGY-7703 cells were transfected with control scrambled siRNA (siCon) or c-Met siRNA (siMet) and cell viability was measured by MTT assay. […] F. The expression of the indicated proteins was detected in the indicated cells by Western blot analysis. […]
as §1

QGY-7703 cells [4] = test: Matrigel invasion assay, QGY-7703 cells; assay type: cell-based, human
Protocol: as §2, §4, §1

CD44 and c-Met = target: T2, CD44 and c-Met (Homo sapiens, UniProt P16070); test: Co-immunoprecipitation of CD44 and c-Met in HepG3 cells; assay type: cell-based
T2 construct: endogenous in cells; host or cells: HepG3 cells (lysates)
T2 sequence (P16070 21-742): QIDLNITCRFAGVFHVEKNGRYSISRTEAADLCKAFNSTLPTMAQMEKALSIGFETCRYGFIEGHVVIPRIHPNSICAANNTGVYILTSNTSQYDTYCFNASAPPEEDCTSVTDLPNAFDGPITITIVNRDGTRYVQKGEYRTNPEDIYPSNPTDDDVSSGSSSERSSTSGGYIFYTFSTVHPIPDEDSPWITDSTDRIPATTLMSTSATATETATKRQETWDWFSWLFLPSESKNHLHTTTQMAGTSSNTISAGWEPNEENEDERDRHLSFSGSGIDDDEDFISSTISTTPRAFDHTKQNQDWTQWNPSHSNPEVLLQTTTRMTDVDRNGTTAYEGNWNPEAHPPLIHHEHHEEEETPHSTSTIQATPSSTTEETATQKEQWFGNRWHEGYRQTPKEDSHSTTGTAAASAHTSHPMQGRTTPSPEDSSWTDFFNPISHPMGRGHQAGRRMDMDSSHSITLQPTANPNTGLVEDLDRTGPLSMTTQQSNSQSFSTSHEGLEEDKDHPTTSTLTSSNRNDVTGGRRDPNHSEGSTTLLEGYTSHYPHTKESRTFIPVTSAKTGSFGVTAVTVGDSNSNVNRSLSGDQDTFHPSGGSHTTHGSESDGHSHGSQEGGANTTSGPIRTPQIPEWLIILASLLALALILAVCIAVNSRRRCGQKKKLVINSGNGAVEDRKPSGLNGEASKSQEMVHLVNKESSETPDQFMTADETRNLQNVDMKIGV
T2 sequence (P08581 308-1390 partner limits assumed): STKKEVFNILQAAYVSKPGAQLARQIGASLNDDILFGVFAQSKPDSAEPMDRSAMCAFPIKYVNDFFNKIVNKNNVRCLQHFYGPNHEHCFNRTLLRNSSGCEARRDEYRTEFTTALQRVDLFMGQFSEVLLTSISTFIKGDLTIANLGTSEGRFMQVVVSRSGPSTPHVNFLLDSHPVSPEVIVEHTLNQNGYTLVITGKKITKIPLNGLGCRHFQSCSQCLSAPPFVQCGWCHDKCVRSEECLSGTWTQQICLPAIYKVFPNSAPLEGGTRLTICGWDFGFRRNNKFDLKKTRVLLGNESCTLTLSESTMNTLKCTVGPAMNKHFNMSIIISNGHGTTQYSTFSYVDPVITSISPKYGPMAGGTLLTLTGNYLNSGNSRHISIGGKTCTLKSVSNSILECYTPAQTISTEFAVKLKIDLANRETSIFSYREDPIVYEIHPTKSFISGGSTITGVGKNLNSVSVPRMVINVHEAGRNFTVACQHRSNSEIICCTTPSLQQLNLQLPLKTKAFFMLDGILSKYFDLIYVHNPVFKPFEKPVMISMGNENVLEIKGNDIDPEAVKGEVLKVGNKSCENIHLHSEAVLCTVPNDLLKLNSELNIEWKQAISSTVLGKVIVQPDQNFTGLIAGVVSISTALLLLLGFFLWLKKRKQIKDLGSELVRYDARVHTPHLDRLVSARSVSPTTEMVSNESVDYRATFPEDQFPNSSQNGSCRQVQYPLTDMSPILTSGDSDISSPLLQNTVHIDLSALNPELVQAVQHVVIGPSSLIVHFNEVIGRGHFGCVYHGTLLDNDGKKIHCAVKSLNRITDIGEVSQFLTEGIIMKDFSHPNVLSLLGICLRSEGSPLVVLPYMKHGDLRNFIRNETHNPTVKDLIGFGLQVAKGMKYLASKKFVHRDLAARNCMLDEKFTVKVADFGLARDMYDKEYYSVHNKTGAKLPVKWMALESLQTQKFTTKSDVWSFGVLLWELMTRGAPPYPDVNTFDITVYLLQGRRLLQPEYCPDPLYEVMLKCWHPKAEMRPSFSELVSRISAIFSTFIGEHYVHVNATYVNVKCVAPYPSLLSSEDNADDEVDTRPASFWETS
T2 sequence (P08581 25-307 partner limits assumed): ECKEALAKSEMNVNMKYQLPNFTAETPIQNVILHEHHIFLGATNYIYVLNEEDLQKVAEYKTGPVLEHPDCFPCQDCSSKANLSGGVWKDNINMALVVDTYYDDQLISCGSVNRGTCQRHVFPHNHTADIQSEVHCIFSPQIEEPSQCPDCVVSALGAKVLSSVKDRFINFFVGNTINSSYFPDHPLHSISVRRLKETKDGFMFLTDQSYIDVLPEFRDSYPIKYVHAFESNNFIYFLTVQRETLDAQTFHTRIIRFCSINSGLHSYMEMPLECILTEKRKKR
Protocol: FIGS. 11A-E. OPN facilitates c-Met activation via CD44 receptor. A. Left panel, HepG3 cells were cultured in serum-free conditions. Right panel, HepG3 cells were cultured in serum-containing medium and untreated or treated with OPN (100 ng/ml) for 24 h. Cell lysates were subjected to immunoprecipitation by anti-c-Met antibody and immunoblotting with anti-CD44, anti-[…] integrin and anti-c-Met antibodies. B. The culture conditions are the same as in A. Immunoprecipitation was done with anti-CD44 antibody and immunoblotting was done with anti-c-Met and anti-CD44 antibody. C. HepG3 cell were cultured in serum-free conditions and then untreated or treated with OPN (100 ng/ml) for 24 h. Immunoprecipitation was done with anti-CD44 antibody and immunoblotting was done with anti-p-c-Met or anti-CD44 antibodies. D. Lysates from LSF-17 and QGY-7703 cells were subjected to immunoprecipitation by anti-c-Met antibody and immunoblotting by anti-CD44, anti-αvβ3 integrin and anti-c-Met antibodies. E. Lysates from LSF-17 and QGY-7703 cells were subjected to immunoprecipitation by anti-CD44 antibody and immunoblotting by anti-c-Met, anti-p-c-Met and anti-CD44 antibodies. The bottom panel serves as inputs for D and E. IgG was used as a control in all the experiments.
We next explored the molecular mechanism of c-Met activation by OPN using co-immunoprecipitation analysis. […]

[5] = treated 24 h, then SU11274-free during invasion assay
[6] = co-treatment with SU11274 5 μM, 24 h

**Q.** Which results are given for `Cc1[nH]c(/C=C2\C(=O)Nc3ccc(S(=O)(=O)N(C)c4cccc(Cl)c4)cc32)c(C)c1C(=O)N1CCN(C)CC1` [SU11274]?
**A.** Matrigel invasion (LSF-17 cells [1]; SU11274 5 μM, 24 h): significantly inhibited; Matrigel invasion after removal of SU11274 (LSF-17 cells [1]; [5]): significantly rescued the cells from inhibition of invasion; inhibition of basal and OPN-induced activation of c-Met (c-Met; [6]): significant inhibition; viability of parental HepG3 cells (parental HepG3 cells): did not affect the viability; cell viability (MTT) (LSF-17 cells [2]): significantly decreased; inhibition of basal and OPN-induced activation of ERK (ERK; SU11274 5 μM): partial inhibition; p-Akt/Akt ratio (Akt; OPN 100 ng/ml plus SU11274, 24 h): 0.63; p-Akt/Akt ratio (Akt; SU11274 alone (basal), control group 0.58): 0.05; inhibition of basal and OPN-induced activation of Akt (Akt; [6]): significant inhibition; cell viability (MTT) (QGY-7703 cells [3]): significantly decreased; Matrigel invasion (QGY-7703 cells [4]; SU11274 5 μM, 24 h): significantly inhibited; Matrigel invasion after removal of SU11274 (QGY-7703 cells [4]; [5]): significantly rescued the cells from inhibition of invasion

**Q.** With “OPN: purified osteopontin, a secreted protein, added to cells at 100 ng/ml” as the compound, how does the “activation of c-Met” value (c-Met; OPN 100 ng/ml, 24 h) read?
**A.** significantly activated

**Q.** What about the “total c-Met level” value (c-Met; OPN treatment) of the same compound?
**A.** did not change

**Q.** What about the “activated c-Met level at 6 h post-treatment” value (c-Met; purified OPN 100 ng/ml) of the same compound?
**A.** remained higher than basal level

**Q.** What about the “time of peak level of c-Met activation post-treatment” value (c-Met; purified OPN 100 ng/ml) of the same compound?
**A.** 30 min

**Q.** What about the “binding affinity between c-Met and CD44” value (CD44 and c-Met; serum-containing culture, OPN 100 ng/ml) of the same compound?
**A.** did not affect the binding affinity

**Q.** And the “association between CD44 and phospho-c-Met” value (CD44 and c-Met; serum-free conditions, OPN 100 ng/ml 24 h)?
**A.** significantly increased

**Q.** What about the “activation of ERK” value (ERK; OPN 100 ng/ml) of the same compound?
**A.** significantly activated

**Q.** What about the “activation of Akt” value (Akt; OPN 100 ng/ml, 24 h) of the same compound?
**A.** significantly activated

**Q.** What about the p-Akt/Akt ratio (Akt; OPN 100 ng/ml, 24 h, control group 0.58) of the same compound?
**A.** 1.42
